Laboratory results published in patent US20050113413A1, “Naphthalene-1,5-disulfonic acid salts of a substituted 4-amino-1-(pyridylmethyl)piperidine compound” (priority 2003, published 2005).

Key:
Type in all cases: physicochemical
[1] = Chemical stability of salt forms (change in purity by HPLC upon storage); conditions: 40° C. and 75% relative humidity, 7 days; for % Change in Impurity A / % Change in Impurity B / % Change in Purity of Salt: HPLC Method D; for % Change in Purity of Salt: heat sealed polyethylene bags
Protocol: The chemical stability of each salt form was evaluated by determining the change in purity of the sample upon storage of the salt form at 40° C.
Prior to storage, each salt form was analyzed by HPLC (Method D) to determine sample purity and in particular, to determine the amount of the following impurities present in the sample: • A. 3-[4-{N-[7-(3-(S)-1-Carbamoyl-1,1-diphenylmethyl)pyrrolidin-1-yl)hept-1-yl]-N-(isopropyl)amino}piperidin-1-ylmethyl]-4-methoxy-1-methylpyridinium Salt (Impurity A); • B. 4-{N-[7-(3-(S)-1-Carbamoyl-1,1-diphenylmethyl)pyrrolidin-1-yl)hept-1-yl]-N-(isopropyl)amino}-1-(4-oxo-1,4-dihydropyrid-3-ylmethyl)piperidine (Impurity B).
Approximately 50-100 mg of the salt form was then placed in two heat sealed low density polyethylene bags. The bags were then placed into a stability chamber that was previously set at 40° C. and 75% relative humidity. After 7 days, the bags were removed and the contents were analyzed by HPLC.

[2] = Physical stability of salt forms (appearance upon storage in open vial); conditions: 30° C. and 60% relative humidity, listed as naphthalene-1,5-disulfonic acid salt
Protocol: The physical stability of certain salt forms was evaluated by determining any changes in appearance of the sample upon storage of the salt form at 30° C. and 60% relative humidity.
To an open vial was added 50-100 mg of each salt form. The open vials were placed in a stability chamber that was previously set at 30° C. and 60% relative humidity. At periodic intervals, the appearance of each salt form was compared to its starting appearance and any differences were recorded.

[3] = Physical stability of encapsulated pharmaceutical formulations (appearance upon storage); conditions: both 25° C. and 60% relative humidity, and ambient temperature and relative humidity
Protocol: The physical stability of encapsulated pharmaceutical formulations containing certain salt forms was evaluated by determining any changes in appearance of the pharmaceutical formulation upon storage.
Capsules containing a 1:1 mixture (wt/wt) of the salt form and microcrystalline cellulose (Avecil) were stored under of the following conditions: • (1) Capsules were placed inside an open container within a stability chamber that was previously set to 25° C. and 60% relative humidity; or • (2) Capsules were placed inside an open container on the bench top alongside a thermometer and hygrometer.
At periodic intervals, the appearance of each formulation was compared to its starting appearance and any differences were recorded.

Compound	Chemical stability (summary in words of Table I) [1]	% Change in Impurity A [1]	% Change in Impurity B [1]	% Change in Purity of Salt [1]	Appearance Day 15 [2]	Appearance of pharmaceutical formulation upon storage (summary in words of Table III) [3]
COc1ccncc1CN1CCC(N(CCCCCCCN2CC[C@@H](C(C(N)=O)(c3ccccc3)c3ccccc3)C2)C(C)C)CC1.O=S(=O)(O)c1cccc2c(S(=O)(=O)O)cccc12 [Example 7]	excellent chemical stability	<0.1%	<0.1%	0.4%	remained a free flowing powder	remained a free flowing powder
COc1ccncc1CN1CCC(N(CCCCCCCN2CC[C@@H](C(C(N)=O)(c3ccccc3)c3ccccc3)C2)C(C)C)CC1.CS(=O)(=O)O.CS(=O)(=O)O [Example 9]		<0.1%	<0.1%	0.9%		
COc1ccncc1CN1CCC(N(CCCCCCCN2CC[C@@H](C(C(N)=O)(c3ccccc3)c3ccccc3)C2)C(C)C)CC1.CS(=O)(=O)O.CS(=O)(=O)O.CS(=O)(=O)O [Example 10]		9.41%	6.59%	16.4%		
COc1ccncc1CN1CCC(N(CCCCCCCN2CC[C@@H](C(C(N)=O)(c3ccccc3)c3ccccc3)C2)C(C)C)CC1.O=S(=O)(O)O [Example 11A]		<0.1%	0.11%	0.8%		
COc1ccncc1CN1CCC(N(CCCCCCCN2CC[C@@H](C(C(N)=O)(c3ccccc3)c3ccccc3)C2)C(C)C)CC1.O=C(O)C(O)C(O)C(=O)O [Example 11B]		0.26%	0.35%	0.8%		formed a non-flowing granular cake
COc1ccncc1CN1CCC(N(CCCCCCCN2CC[C@@H](C(C(N)=O)(c3ccccc3)c3ccccc3)C2)C(C)C)CC1.O=C(O)c1cc(=O)[nH]c(=O)[nH]1.O=C(O)c1cc(=O)[nH]c(=O)[nH]1 [Example 11C]		0.45%	0.49%	1.1%		
COc1ccncc1CN1CCC(N(CCCCCCCN2CC[C@@H](C(C(N)=O)(c3ccccc3)c3ccccc3)C2)C(C)C)CC1.O=C(O)c1ccccc1O.O=C(O)c1ccccc1O [Example 11D]		0.17%	0.19%	0.7%		
COc1ccncc1CN1CCC(N(CCCCCCCN2CC[C@@H](C(C(N)=O)(c3ccccc3)c3ccccc3)C2)C(C)C)CC1.O=C(O)c1ccccc1O.O=C(O)c1ccccc1O.O=C(O)c1ccccc1O [Example 11E]		1.22%	1.06%	2.7%		
COc1ccncc1CN1CCC(N(CCCCCCCN2CC[C@@H](C(C(N)=O)(c3ccccc3)c3ccccc3)C2)C(C)C)CC1.O=C(O)c1cc(O)ccc1O.O=C(O)c1cc(O)ccc1O [Example 11F]		0.21%	0.23%	0.4%		
COc1ccncc1CN1CCC(N(CCCCCCCN2CC[C@@H](C(C(N)=O)(c3ccccc3)c3ccccc3)C2)C(C)C)CC1.Cl.Cl [Example 11G]		1.16%	0.79%	3.6%		
